Test results published in patent US20250034139A1, “AMINE COMPOUNDS HAVING ANTI-INFLAMMATORY, ANTIFUNGAL, ANTIPARASITIC, AND ANTICANCER ACTIVITY” (PHARMA CINQ, LLC, priority 2013, published 2025).
≈ marks a conversion by molar mass, not a printed value.

Assays:
[1] = test system: Candida albicans strain 3153; assay: Example H: Candida albicans growth inhibition (OD 600 nm); assay type: cell-based
Procedure: A single colony of Candida Albicans was grown in 50 ml YPD broth overnight (19 hr). The cells were washed with PBS and 3.5×10^4 CFU/ml of C. Albicans (144 μl/well) in YPD medium were plated in 96 well plates. Test compounds were then added to each well with concentration ranged from 5 to 40 μM as final concentrations. The plates were incubated at 30° C. overnight (24 hrs) and OD at 600 nm was read at the end of incubation as an index of yeast cell density.
Part-I: Preparation of Candida albicans Cells • 1. One day prior to the inoculum preparation, pick a single colony of Candida albicans strain 3153 (lot #61794) from the Sabouraud Dextrose Agar plate using the inoculum loop and inoculate into a 250 mL flask containing 50 ml of YPD growth medium • 2. Incubate at 30° C. with shaking at 150 rpm for at least 18 hours with loosened lid to allow air in and facilitate growth. • 3. Examine an aliquot of the culture under a microscope for Candida cell morphology and lack of bacterial contamination; >95% of Candida cells should be blastoconidia. • 4. Transfer 25 ml the overnight culture into a 50-ml plastic disposable centrifuge tube, and centrifuge at 1000×g for 20 min. • 5. Discard the supernatant and wash the pellet with 4 ml of PBS at three times. Vortex and centrifuge, 1000×g for 10 min. • 6. After the third wash, dispense the pellet with 2 ml PBS and vortex. • 7. Make three 1:10 serial dilutions in sterile PBS (10^−1, 10^−2, 10^−3) from the 2 ml cell suspension using 15 ml culture tubes. The final volume in each tube is 5 ml. • 8. […] Make a 1:4 dilution in YPD medium from the 50-fold dilution of 10^−3 cell suspension for testing compounds. • The final C. albicans cell concentration for the test: 3.5×10^4 CFU/ml • 10. Plated 144 ul/well of the above dilution of cell on 96-well plates. Part-II: C. Albicans Growth Inhibition Testing with Compounds • 1. From 10 mM DMSO stock solutions, make serial dilutions of compounds to 0.13, 0.25, 0.40, 0.55, 0.75 and 1.0 mM solutions • 2. Add 6 ul each of diluted compound solutions per well in duplicates. The final concentrations were 0, 5, 10, 16, 22, 30 and 40 micromolar. • 3. Incubated all plates at 30 C for overnight (˜24 hours). • 4. Read absorbance at OD600 for each plate. • 5. Calculate the % inhibition of each compound against the DMSO treated cell.

[2] = test system: PC-3 prostate cancer cells; assay: Example T: sensitisation of PC-3 cells to doxorubicin, oxaliplatin, paclitaxel or vincristine, Wst1; assay type: cell-based, human; details: PC-3 cells, 72 hours; for viability at 0.4 µM: compound 0.4 μM alone; for Doxorubicin 3.5 μM: percent cell survival / Oxaliplatin 100 μM: percent cell survival / Paclitaxel 50 μM: percent cell survival / Vincristine 100 nM: percent cell survival: chemotherapy agent alone normalized to 100%
S. cerevisiae = assay: Example I: Saccharomyces cerevisiae growth inhibition (OD 600 nm); assay type: cell-based
Procedure: An overnight culture of S. cerevisiae was dilution in YPD broth to concentration of 40,000/ml and 150 μl/well was plated in 96 well plates. Compounds were then added to each well with concentration ranged from 4 to 50 μM as final concentration. The plates were inoculated at 30° C. overnight with shaking at 220 rpm and absorbance at 600 nm was read after 18 hour incubation.
• 1. One days prior to the inoculum preparation, pick a single colony of S. cerevisiae from the Sabouraud Dextrose Agar plate using the inoculum loop and inoculate into a 50 mL tube containing 10 ml of YPD growth medium • 2. Incubate at 30° C. with shaking at 220 rpm for 24 hours with loosen lid to allow air in and facilitates growth. • 3. Examine an aliquot of the culture under a microscope for yeast cell morphology and lack of bacterial contamination. • 4. Dilute the overnight culture with YPD medium at 1:30 dilution (70 ul to 2.1 ml) and count the number of cells as 4,230,000/ml. • 5. Mix 620 μl of 1:30 dilution and 64.4 ml YPD to make final concentration of 40,000/ml cells • 6. Plated 144 μl/well in four 96-well plates.
• 1. From 10 mM DMSO stock solutions, make serial dilutions of compounds to 0.1, 0.2, 0.3, 0.63 and 1.25 mM solutions • 2. Add 6 μl each of diluted compound solutions per well in duplicates. The final concentrations were 0, 4, 8, 12, 25 and 50 micromolar. • 3. Incubated all plates at 30 C for overnight (˜18 hours) with 220 rpm shaking. • 4. Read absorbance at OD600 for each plate on Spectra Max Plus plate reader. • 5. Calculate the % inhibition of each compound against the DMSO treated cell and plotted.

THP-1 cells = assay: Example D: LPS-triggered THP-1 cell death assay, acute/5-hour and chronic/48-hour; assay type: cell-based, Human; details: 10 ng/ml LPS, 0.1 μM test compound, 48 hours
Procedure: Compounds of the invention were tested at 0.1 μM versus AC in the LPS-triggered THP-1 cell death assay. Both acute/5-hour and chronic/48-hour phases of cell death were assessed. Compounds were screened in batches with DMSO as the negative control and AC as the high activity control.

[3] = test system: 4T1 murine breast cancer cells; assay: Example S: in vitro anticancer screen, 4T1 cells, Wst1; assay type: cell-based, mouse; details: Mus musculus, 4T1, 18 h, 18 hr, Wst1; for viability at 1 µM: read-out: 4T1 1 μM, percent of cancer cell survival relative to vehicle treated cells; for viability at 5 µM: read-out: 4T1 5 μM, percent of cancer cell survival relative to vehicle treated cells
Procedure, shortened: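 4T1 cells seeded at 1×10^4/well were exposed to compound at 1 μM or 5 μM for 18 hr after plating. Wst1 tetrazolium dye was then added for about 2 hr and absorbance read at 450 nm (reference 630 nm). Values are percent survival relative to vehicle-treated cells.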

[4] = test system: PC3 human prostate cancer cells; assay: Example S: in vitro anticancer screen, PC-3 cells, Wst1; assay type: cell-based; details: Homo sapiens, PC-3, approximately 20 hours, Wst1, read-out: PC-3, percent of cancer cell survival relative to vehicle treated cells
Procedure, shortened: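 PC-3 cells, 2×10^4 cells/well, exposed ~20 h to vehicle or compound at 0.4, 0.5 or 2.5 μM as specified per compound. Wst1 dye added for 2 h; absorbance 450 nm (reference 630 nm), triplicates. Values are percent cell survival versus vehicle-treated cells.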

[5] = test system: imiquimod-induced dermatitis; details: for Ear thickness, Mean ± SEM: imiquimod-treated mice; for Ear thickness, Mean ± SEM / PASI Score, Mean ± SEM: topical ointment 0.06% active drug (dexamethasone 0.03%, tacrolimus 0.1%); for PASI Score, Mean ± SEM: scale 0-12
Procedure: Topical imiquimod (IMQ), a toll-like receptor agonist, has been established as a model of Inflammatory skin diseases including psoriasis and atopic dermatitis. Dermal inflammatory changes and gene expression in mice treated with topical imiquimod mimic human psoriasis and dermatitis (van der Fits et al., 2009; Swindell et al., 2011). The effect of a set of compounds of the invention were tested in a mouse model of imiquimod-induced dermatitis, with topical tacrolimus and dexamethasone as comparators for assessing safety and efficacy relative to standard agents used to treat dermatitis in humans.
Commercial 0.1% tacrolimus ointment (ProTopic™[…]) was also used as an active comparator. Petrolatum containing 10% ethanol was used as a control treatment.
Female Balb/C mice (8 weeks old) were randomized and divided into groups of 5 animals each. Polyethylene collars were affixed to the mice to prevent them from easily scratching their ears. 5% imiquimod was applied to both ears of each mouse (20 microliters per ear) daily for 5 days, and then every other day for the full duration of the study. […] On day 7 after initiation of imiquimod, treatment with topical agents was started. Both ears of each mouse were treated with test ointments, with one compound per mouse.
Ear thickness and PASI assessments (Psoriasis Area and Severity Index, a standard psoriasis scoring system) were recorded twice per week throughout the study. The PASI score comprises the sum of evaluations of swelling, erythema and scaling on scales from 0 to 4; the maximum PASI score is 12, and the minimum, in unaffected skin, is 0).

[6] = Homo sapiens, Wst1, vehicle = 100, read-out: No Chemo: percent cell survival
[7] = compound 0.4 μM + doxorubicin 3.5 μM
[8] = compound 0.4 μM + oxaliplatin 100 μM
[9] = compound 0.4 μM + paclitaxel 50 μM
[10] = compound 0.4 μM + vincristine 100 nM

`c1ccc2c(NCCCCCCCCNc3ccnc4ccccc34)ccnc2c1` [Compound AI, N^1,N^8-Di(quinolin-4-yl)octane-1,8-diamine] was tested, and the MIC ([1]; Candida albicans, 3153, 24 hrs at 30° C., YPD, XLfit, read-out: MIC (uM) (99% of inhibition of fungal growth)) was 56.4 µM (≈ 22.5 µg/mL), the IC50 ([1]; Candida albicans, 3153, read-out: IC50 (uM) (50% inhibition of fungal growth), 24 hrs at 30° C., YPD, XLfit) was 18.3 µM and the viability at 0.4 µM [2, 6] was 36.4%. The “Doxorubicin 3.5 μM: percent cell survival” value [2, 7] was 80.8%, the “Oxaliplatin 100 μM: percent cell survival” value [2, 8] was 89% and the “Paclitaxel 50 μM: percent cell survival” value [2, 9] was 96.1%. For the same compound, the “Vincristine 100 nM: percent cell survival” value [2, 10] was 64.9%, the IC50 (S. cerevisiae; Saccharomyces cerevisiae, read-out: IC50, uM (50% inhibition of fungal growth), 18 hour incubation at 30° C., OD 600 nm, XLfit) was 6.31 µM and the “inactive compound (inhibition of yeast growth, in words)” value (S. cerevisiae; tested 4 to 50 μM) was “could not reach near 100% kill at high concentration”. For the same compound, the “Viable cell percent change, Chronic/48-hour, Mean” value (shortened to “Viable cell percent change”) (THP-1 cells) was 28.60%, the viability at 1 µM [3] was 16.2% and the viability at 5 µM [3] was 17.9%. The viability at 0.4 µM [4] was 36.4%.
For `c1ccc(Oc2ccc(Nc3ccnc4ccccc34)cc2)cc1` [DD, N-(4-Phenoxyphenyl)quinolin-4-amine], the “Viable cell percent change” value (THP-1 cells) was 44.34%, the “Ear thickness, Mean ± SEM” value [5] was 0.589 ± 0.018 and the “Body Weight (mean ± SEM), Final” value ([5]; mouse, in vivo) was 20.7 ± 0.6 g. For the same compound, the “Body Weight (mean ± SEM), Initial” value ([5]; mouse, in vivo) was 20.9 ± 0.8 g, the “D BW” value ([5]; mouse, in vivo) was -0.2 g and the “PASI Score, Mean ± SEM” value [5] was 7.450 ± 0.322. It also gave a viability at 1 µM [3] of 97.4% and a viability at 5 µM [3] of 104%.
For `c1ccc(Oc2cccc(Nc3ccnc4ccccc34)c2)cc1` [DE, N-(3-Phenoxyphenyl)quinolin-4-amine], the viability at 2.5 µM ([2]; Homo sapiens, compound 2.5 μM alone, Wst1, vehicle = 100, read-out: No Chemo: percent cell survival) was 42%, the “Doxorubicin 3.5 μM: percent cell survival” value ([2]; compound 2.5 μM + doxorubicin 3.5 μM) was 69.3% and the “Oxaliplatin 100 μM: percent cell survival” value ([2]; compound 2.5 μM + oxaliplatin 100 μM) was 84.7%. The “Paclitaxel 50 μM: percent cell survival” value ([2]; compound 2.5 μM + paclitaxel 50 μM) was 68.6%, the “Vincristine 100 nM: percent cell survival” value ([2]; compound 2.5 μM + vincristine 100 nM) was 74% and the “Viable cell percent change” value (THP-1 cells) was 25.65%. The “Ear thickness, Mean ± SEM” value [5] was 0.593 ± 0.016, the “Body Weight (mean ± SEM), Final” value ([5]; mouse, in vivo) was 20.5 ± 0.5 g and the “Body Weight (mean ± SEM), Initial” value ([5]; mouse, in vivo) was 20.6 ± 0.5 g. For the same compound, the “D BW” value ([5]; mouse, in vivo) was -0.1 g, the “PASI Score, Mean ± SEM” value [5] was 7.250 ± 0.183 and the viability at 1 µM [3] was 60.1%. For the same compound, the viability at 5 µM [3] was 28.6% and the viability at 2.5 µM ([4]; 2.5 μM) was 42%.
With `CCCCCCCCCCOc1cccc(CNc2ccnc3ccccc23)c1` [DU, N-[3-(Decyloxy)benzyl]quinolin-4-amine] the “Viable cell percent change” value (THP-1 cells) was 17.10%, the “Ear thickness, Mean ± SEM” value [5] was 0.607 ± 0.027 and the “Body Weight (mean ± SEM), Final” value ([5]; mouse, in vivo) was 20.9 ± 0.5 g. For the same compound, the “Body Weight (mean ± SEM), Initial” value ([5]; mouse, in vivo) was 20.4 ± 0.7 g, the “D BW (g)” value ([5]; mouse, in vivo) was “+0.5 g” and the “PASI Score, Mean ± SEM” value [5] was 7.975 ± 0.621.
With `O=C(NCCCCCCCCNc1ccnc2ccccc12)c1cccnc1` [EF, N-[8-(Quinolin-4-ylamino)octyl]nicotinamide] the viability at 0.4 µM [2, 6] was 16.7%, the “Doxorubicin 3.5 μM: percent cell survival” value [2, 7] was 31.3% and the “Oxaliplatin 100 μM: percent cell survival” value [2, 8] was 21.7%. For the same compound, the “Paclitaxel 50 μM: percent cell survival” value [2, 9] was 24.3%, the “Vincristine 100 nM: percent cell survival” value [2, 10] was 23.4% and the “Ear thickness, Mean ± SEM” value [5] was 0.613 ± 0.010. For the same compound, the “Body Weight (mean ± SEM), Final” value ([5]; mouse, in vivo) was 21.3 ± 0.2 g, the “Body Weight (mean ± SEM), Initial” value ([5]; mouse, in vivo) was 21.5 ± 0.6 g and the “D BW” value ([5]; mouse, in vivo) was -0.2 g. The “PASI Score, Mean ± SEM” value [5] was 7.275 ± 0.199, the viability at 1 µM [3] was 15.6% and the viability at 5 µM [3] was 23.7%. The viability at 0.4 µM [4] was 16.7%.
